Results: patent US9113629B2, “4-amino-6-(4-substituted-phenyl)-picolinates and 6-amino-2-(4-substituted-phenyl)-pyrimidine-4-carboxylates and their use as herbicides” (DOW AGROSCIENCES LLC, priority 2013, dated 2015)
Like-named read-outs stand apart in the source and are kept apart here.

How the values were obtained:
[1] = test system: Key Broadleaf Weed and Crop Species; assay: Post-emergent Test II herbicidal activity (Table 5); type: in vivo; settings: post-emergence, 336 h, post-emergent, 14 days after application; for pest or weed control at 70 g/ha: 70 g ai/ha; for pest or weed control at 140 g/ha: 140 g ai/ha
Outline: (§1)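 Test species were raised 7–21 d under greenhouse conditions until reaching the first or second true leaf, sprayed with formulated compound at 187 L/ha, and kept subirrigated to avoid wash-off. Fourteen days later, damage was rated visually on a 0–100% scale against untreated plants.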

[2] = test system: Key Grass and Sedge Weeds as well as Grass Crops; assay: Post-emergent Test II herbicidal activity (Table 6); type: in vivo; settings: post-emergence, 336 h; for pest or weed control at 70 g/ha: application rate 70 g ai/ha; for pest or weed control at 140 g/ha: application rate 140 g ai/ha
Outline: as §1

[3] = ABUTH: velvetleaf (Abutilon theophrasti), read-out: Visual Growth Reduction (%) 14 Days After Application ABUTH
[4] = AMARE: redroot pigweed (Amaranthus retroflexus), read-out: Visual Growth Reduction (%) 14 Days After Application AMARE
[5] = BRSNN: oilseed-rape, canola (Brassica napus), read-out: Visual Growth Reduction (%) 14 Days After Application BRSNN
[6] = CHEAL: lambsquarters (Chenopodium album), read-out: Visual Growth Reduction (%) 14 Days After Application CHEAL
[7] = EPHHL: wild poinsettia (Euphorbia heterophylla), read-out: Visual Growth Reduction (%) 14 Days After Application EPHHL
[8] = HELAN: sunflower (Helianthus annuus), read-out: Visual Growth Reduction (%) 14 Days After Application HELAN
[9] = VIOTR: wild pansy (Viola tricolor), read-out: Visual Growth Reduction (%) 14 Days After Application VIOTR
[10] = Triticum aestivum, TRZSS (wheat), read-out: Visual Growth Reduction (%) 14 Days After Application, TRZSS
[11] = CYPES: yellow nutsedge (Cyperus esculentus), read-out: Visual Growth Reduction (%) 14 Days After Application, CYPES
[12] = DIGSA: crabgrass (Digitaria sanguinalis), read-out: Visual Growth Reduction (%) 14 Days After Application, DIGSA
[13] = ECHCG: barnyardgrass (Echinochloa crus-galli), read-out: Visual Growth Reduction (%) 14 Days After Application, ECHCG
[14] = ORYSA: rice (Oryza sativa), read-out: Visual Growth Reduction (%) 14 Days After Application, ORYSA
[15] = SETFA: giant foxtail (Setaria faberi), read-out: Visual Growth Reduction (%) 14 Days After Application, SETFA
[16] = SORVU: grain sorghum (Sorghum vulgare), read-out: Visual Growth Reduction (%) 14 Days After Application, SORVU
[17] = ZEAMX: maize, corn (Zea mays), read-out: Visual Growth Reduction (%) 14 Days After Application, ZEAMX

Compound COC(=O)c1nc(-c2ccc(Br)cc2)c(Cl)c(N)c1Cl [Compound 47] has a pest or weed control at 70 g/ha [1, 3] of 95 to 100%, a pest or weed control at 140 g/ha [1, 3] of 95 to 100% and a pest or weed control at 70 g/ha [1, 4] of 95 to 100%. For the same compound, the pest or weed control at 140 g/ha [1, 4] was 95 to 100%, the pest or weed control at 70 g/ha [1, 5] was 95 to 100% and the pest or weed control at 140 g/ha [1, 5] was 95 to 100%. The pest or weed control at 70 g/ha [1, 6] was 95 to 100%, the pest or weed control at 140 g/ha [1, 6] was 95 to 100% and the pest or weed control at 70 g/ha [1, 7] was 85 to 94%. It also gave a pest or weed control at 140 g/ha [1, 7] of 95 to 100%, a pest or weed control at 70 g/ha [1, 8] of 95 to 100% and a pest or weed control at 140 g/ha [1, 8] of 95 to 100%. It also gave a pest or weed control at 70 g/ha [1, 9] of 0 to 29%, a pest or weed control at 140 g/ha [1, 9] of 0 to 29% and a pest or weed control at 70 g/ha [2, 10] of 45 to 59%. The pest or weed control at 140 g/ha [2, 10] was 45 to 59%, the pest or weed control at 70 g/ha [2, 11] was 85 to 94% and the pest or weed control at 140 g/ha [2, 11] was 95 to 100%. The pest or weed control at 70 g/ha [2, 12] was 75 to 84%, the pest or weed control at 140 g/ha [2, 12] was 75 to 84% and the pest or weed control at 70 g/ha [2, 13] was 85 to 94%. It also gave a pest or weed control at 140 g/ha [2, 13] of 85 to 94%, a pest or weed control at 70 g/ha [2, 14] of 0 to 29% and a pest or weed control at 140 g/ha [2, 14] of 0 to 29%. The pest or weed control at 70 g/ha [2, 15] was 85 to 94%, the pest or weed control at 140 g/ha [2, 15] was 95 to 100% and the pest or weed control at 70 g/ha [2, 16] was 85 to 94%. For the same compound, the pest or weed control at 140 g/ha [2, 16] was 85 to 94%, the pest or weed control at 70 g/ha [2, 17] was 85 to 94% and the pest or weed control at 140 g/ha [2, 17] was 85 to 94%.
COC(=O)c1nc(-c2cc(F)c(Br)cc2F)c(F)c(N)c1Cl [Compound 51, methyl 4-amino-6-(4-bromo-2,5-difluorophenyl)-3-chloro-5-fluoropicolinate] gave a pest or weed control at 70 g/ha [1, 3] of 95 to 100%, a pest or weed control at 140 g/ha [1, 3] of 95 to 100% and a pest or weed control at 70 g/ha [1, 4] of 95 to 100%. It also gave a pest or weed control at 140 g/ha [1, 4] of 95 to 100%, a pest or weed control at 70 g/ha [1, 5] of 95 to 100% and a pest or weed control at 140 g/ha [1, 5] of 95 to 100%. The pest or weed control at 70 g/ha [1, 6] was 95 to 100%, the pest or weed control at 140 g/ha [1, 6] was 95 to 100% and the pest or weed control at 70 g/ha [1, 7] was 95 to 100%. It also gave a pest or weed control at 140 g/ha [1, 7] of 95 to 100%, a pest or weed control at 70 g/ha [1, 8] of 95 to 100% and a pest or weed control at 140 g/ha [1, 8] of 95 to 100%. It also gave a pest or weed control at 70 g/ha [1, 9] of 95 to 100%, a pest or weed control at 140 g/ha [1, 9] of 95 to 100% and a pest or weed control at 70 g/ha [2, 10] of 60 to 74%. For the same compound, the pest or weed control at 140 g/ha [2, 10] was 85 to 94%, the pest or weed control at 70 g/ha [2, 11] was 95 to 100% and the pest or weed control at 140 g/ha [2, 11] was 95 to 100%. For the same compound, the pest or weed control at 70 g/ha [2, 12] was 95 to 100%, the pest or weed control at 70 g/ha [2, 13] was 95 to 100% and the pest or weed control at 140 g/ha [2, 13] was 95 to 100%. For the same compound, the pest or weed control at 70 g/ha [2, 14] was 0 to 29%, the pest or weed control at 140 g/ha [2, 14] was 0 to 29% and the pest or weed control at 70 g/ha [2, 15] was 95 to 100%. It also gave a pest or weed control at 140 g/ha [2, 15] of 95 to 100%, a pest or weed control at 70 g/ha [2, 16] of 95 to 100% and a pest or weed control at 140 g/ha [2, 16] of 95 to 100%. It also gave a pest or weed control at 70 g/ha [2, 17] of 85 to 94% and a pest or weed control at 140 g/ha [2, 17] of 85 to 94%.
Work on C=Cc1c(C(=O)OC)nc(-c2ccc(C(F)(F)F)c(F)c2F)c(F)c1N [Compound 53, methyl 4-amino-6-(2,3-difluoro-4-(trifluoromethyl)phenyl)-5-fluoro-3-vinylpicolinate] yielded a pest or weed control at 70 g/ha [1, 3] of 0 to 29%, a pest or weed control at 140 g/ha [1, 3] of 0 to 29% and a pest or weed control at 70 g/ha [1, 4] of 0 to 29%. It also gave a pest or weed control at 140 g/ha [1, 4] of 0 to 29%, a pest or weed control at 70 g/ha [1, 5] of 0 to 29% and a pest or weed control at 140 g/ha [1, 5] of 0 to 29%. For the same compound, the pest or weed control at 70 g/ha [1, 6] was 0 to 29%, the pest or weed control at 140 g/ha [1, 6] was 0 to 29% and the pest or weed control at 70 g/ha [1, 7] was 95 to 100%. It also gave a pest or weed control at 140 g/ha [1, 7] of 95 to 100%, a pest or weed control at 70 g/ha [1, 8] of 0 to 29% and a pest or weed control at 140 g/ha [1, 8] of 0 to 29%. For the same compound, the pest or weed control at 70 g/ha [1, 9] was 0 to 29%, the pest or weed control at 140 g/ha [1, 9] was 0 to 29% and the pest or weed control at 70 g/ha [2, 10] was 0 to 29%. It also gave a pest or weed control at 140 g/ha [2, 10] of 0 to 29%, a pest or weed control at 70 g/ha [2, 11] of 0 to 29% and a pest or weed control at 140 g/ha [2, 11] of 0 to 29%. It also gave a pest or weed control at 70 g/ha [2, 12] of 0 to 29%, a pest or weed control at 140 g/ha [2, 12] of 0 to 29% and a pest or weed control at 70 g/ha [2, 13] of 0 to 29%. The pest or weed control at 140 g/ha [2, 13] was 0 to 29%, the pest or weed control at 70 g/ha [2, 14] was 0 to 29% and the pest or weed control at 140 g/ha [2, 14] was 0 to 29%. The pest or weed control at 70 g/ha [2, 15] was 0 to 29%, the pest or weed control at 140 g/ha [2, 15] was 0 to 29% and the pest or weed control at 70 g/ha [2, 16] was 0 to 29%. For the same compound, the pest or weed control at 140 g/ha [2, 16] was 0 to 29%, the pest or weed control at 70 g/ha [2, 17] was 0 to 29% and the pest or weed control at 140 g/ha [2, 17] was 0 to 29%.
